“And” between values parts separate entries of the source, which are not always exact repeats. Identical values can stand only once. Toxic doses and inconclusive results are not listed. Rule for the calls: active = survival T/C of 150% or more; inactive = T/C below 125% in these data.
Test system: P388 leukemia ip, CD2F1 mice, survival T/C
Test: NCI In Vivo Anticancer Drug Screen. Data for tumor model P388 Leukemia (intraperitoneal) in CD2F1 (CDF1) mice
Conditions: endpoint: median survival time, higher = longer survival
Method in brief: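 Mice carrying the transplanted tumor received test compound or vehicle. Survival was recorded in each group, and the value is the treated-group measurement divided by that of the vehicle-treated control group.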

[1] = dose: 60.0 mg/kg/injection, schedule: Q01DX005 (ip), vehicle: Klucel (hydroxypropylcellulose) (HPC)
[2] = dose: 50.0 mg/kg/injection, schedule: Q01DX009 (ip), vehicle: saline with Tween-80
[3] = dose: 100.0 mg/kg/injection, schedule: Q01DX009 (ip), vehicle: Klucel (hydroxypropylcellulose) (HPC)
[4] = dose: 200.0 mg/kg/injection, schedule: Q01DX009 (ip), vehicle: Klucel (hydroxypropylcellulose) (HPC)
[5] = dose: 100.0 mg/kg/injection, schedule: Q01DX001 (ip), vehicle: saline
[6] = dose: 200.0 mg/kg/injection, schedule: Q01DX001 (ip), vehicle: saline
[7] = dose: 30.0 mg/kg/injection, schedule: Q01DX005 (ip), vehicle: saline with Tween-80
[8] = dose: 60.0 mg/kg/injection, schedule: Q01DX005 (ip), vehicle: saline with Tween-80
[9] = dose: 120.0 mg/kg/injection, schedule: Q01DX005 (ip), vehicle: saline with Tween-80
[10] = dose: 25.0 mg/kg/injection, schedule: Q01DX005 (ip), vehicle: Klucel (hydroxypropylcellulose) (HPC)
[11] = dose: 50.0 mg/kg/injection, schedule: Q01DX005 (ip), vehicle: Klucel (hydroxypropylcellulose) (HPC)
[12] = dose: 100.0 mg/kg/injection, schedule: Q01DX005 (ip), vehicle: Klucel (hydroxypropylcellulose) (HPC)
[13] = dose: 200.0 mg/kg/injection, schedule: Q01DX005 (ip), vehicle: Klucel (hydroxypropylcellulose) (HPC)
[14] = dose: 240.0 mg/kg/injection, schedule: Q01DX005 (ip), vehicle: saline with Tween-80
[15] = dose: 120.0 mg/kg/injection, schedule: Q01DX005 (ip), vehicle: Klucel (hydroxypropylcellulose) (HPC)
[16] = dose: 240.0 mg/kg/injection, schedule: Q01DX005 (ip), vehicle: Klucel (hydroxypropylcellulose) (HPC)

Measured: T/C

C[CH2][Sn]1([CH2]C)[O]C(=O)CC(=O)[O]1
inactive: dose: 1.56 mg/kg/injection, schedule: Q04DX003 (ip), vehicle: saline 105 % of control and 120 % of control | dose: 3.12 mg/kg/injection, schedule: Q04DX003 (ip), vehicle: saline 115 % of control and 118 % of control | dose: 6.25 mg/kg/injection, schedule: Q04DX003 (ip), vehicle: saline 114 % of control and 124 % of control | dose: 12.5 mg/kg/injection, schedule: Q04DX003 (ip), vehicle: saline 109 % of control

CC/C(=N/N(C)C)C(=O)OC
inactive: dose: 100.0 mg/kg/injection, schedule: Q04DX002 (ip), vehicle: saline 95 % of control | dose: 200.0 mg/kg/injection, schedule: Q04DX002 (ip), vehicle: saline 100 % of control | dose: 400.0 mg/kg/injection, schedule: Q04DX002 (ip), vehicle: saline 98 % of control

O=C1/C(=C\c2ccc3c(c2)OCO3)SC(=S)N1CCCN1CCOCC1
inactive: dose: 50.0 mg/kg/injection, schedule: Q01DX005 (ip), vehicle: saline with Tween-80 92 % of control | dose: 100.0 mg/kg/injection, schedule: Q01DX005 (ip), vehicle: saline with Tween-80 90 % of control | dose: 200.0 mg/kg/injection, schedule: Q01DX005 (ip), vehicle: saline with Tween-80 93 % of control

CCc1nc(N)nc(N)c1-c1ccc(N(C)C)c(N=[N+]=[N-])c1
inactive: dose: 15.0 mg/kg/injection, schedule: Q01DX005 (ip), vehicle: Klucel (hydroxypropylcellulose) (HPC) 96 % of control | dose: 30.0 mg/kg/injection, schedule: Q01DX005 (ip), vehicle: Klucel (hydroxypropylcellulose) (HPC) 92 % of control | [1] 105 % of control and 113 % of control

O=S(=O)(O)C(Nc1ccc(Cl)cc1)c1ccccc1 (stereo not given)
inactive: [2] 100 % of control | dose: 100.0 mg/kg/injection, schedule: Q01DX009 (ip), vehicle: saline with Tween-80 105 % of control | dose: 200.0 mg/kg/injection, schedule: Q01DX009 (ip), vehicle: saline with Tween-80 114 % of control

CC1C=CCC(C)(C)C1 (stereo not given)
inactive: [3] 101 % of control | dose: 100.0 mg/kg/injection, schedule: Q04DX003 (ip), vehicle: saline 88 % of control | [4] 106 % of control | dose: 200.0 mg/kg/injection, schedule: Q04DX003 (ip), vehicle: saline 96 % of control | dose: 400.0 mg/kg/injection, schedule: Q04DX003 (ip), vehicle: saline 92 % of control

Cc1csc([NH-])n1.Cc1csc([NH-])n1.[Cl][Pt+2][Cl]
inactive: dose: 100.0 mg/kg/injection, schedule: Q01DX001 (sc), vehicle: olive oil, sesame oil, peanut oil 104 % of control | dose: 200.0 mg/kg/injection, schedule: Q01DX001 (sc), vehicle: olive oil, sesame oil, peanut oil 107 % of control | dose: 400.0 mg/kg/injection, schedule: Q01DX001 (sc), vehicle: olive oil, sesame oil, peanut oil 104 % of control

CCOP(=O)(OCC)SCSC(C)C
inactive: dose: 0.04 mg/kg/injection, schedule: Q01DX009 (ip), vehicle: Klucel (hydroxypropylcellulose) (HPC) 102 % of control | dose: 0.09 mg/kg/injection, schedule: Q01DX009 (ip), vehicle: Klucel (hydroxypropylcellulose) (HPC) 102 % of control | dose: 0.19 mg/kg/injection, schedule: Q01DX009 (ip), vehicle: Klucel (hydroxypropylcellulose) (HPC) 108 % of control

O=[N+]([O-])c1ccc(O)c(CN2CCC(O)(c3ccccc3)CC2)c1
inactive: dose: 100.0 mg/kg/injection, schedule: Q04DX003 (ip), vehicle: Klucel (hydroxypropylcellulose) (HPC) 108 % of control | dose: 200.0 mg/kg/injection, schedule: Q04DX003 (ip), vehicle: Klucel (hydroxypropylcellulose) (HPC) 99 % of control | dose: 400.0 mg/kg/injection, schedule: Q04DX003 (ip), vehicle: Klucel (hydroxypropylcellulose) (HPC) 107 % of control

Clc1ccc(OCSCOc2ccc(Cl)cc2Cl)c(Cl)c1
inactive: dose: 50.0 mg/kg/injection, schedule: Q01DX009 (ip), vehicle: Klucel (hydroxypropylcellulose) (HPC) 106 % of control | [3] 99 % of control | [4] 101 % of control

Clc1cccc2nncn12
inactive: dose: 50.0 mg/kg/injection, schedule: Q01DX001 (ip), vehicle: saline 98 % of control | [5] 102 % of control | [6] 100 % of control

N#CCc1nc2ccccc2s1
inactive: [7] 102 % of control | [8] 107 % of control | [9] 102 % of control

CC/C=C/C(O)C(O)C1=C(C)C(=O)C2(O1)C(=O)NC(OC)(C(=O)c1ccccc1)C2O (stereo not given)
inactive: dose: 12.5 mg/kg/injection, schedule: Q01DX005 (ip), vehicle: Klucel (hydroxypropylcellulose) (HPC) 99 % of control | [10] 99 % of control | [11] 94 % of control | [12] 96 % of control | dose: 150.0 mg/kg/injection, schedule: Q01DX005 (ip), vehicle: Klucel (hydroxypropylcellulose) (HPC) 103 % of control | [13] 106 % of control

CCc1cccc(CC)c1NC(=O)OCCN(CC)CC
inactive: [8] 100 % of control | [9] 94 % of control

CNC(=O)OCC1=C(COC(=O)NC)C2OC1C(C(=O)OC)=C2C(=O)OC
inactive: dose: 3.13 mg/kg/injection, schedule: Q01DX009 (ip), vehicle: distilled water + Tween-80 91 % of control | dose: 12.5 mg/kg/injection, schedule: Q01DX009 (ip), vehicle: distilled water + Tween-80 94 % of control

O=S(=O)(Nc1ccc(C(F)(F)F)cc1)c1ccc(F)cc1
inactive: [8] 100 % of control | [9] 100 % of control | [14] 104 % of control

CCOC(=O)C(CC)(COCc1ccccc1)C(=O)OCC
inactive: dose: 50.0 mg/kg/injection, schedule: Q01DX009 (ip), vehicle: other 100 % of control | dose: 100.0 mg/kg/injection, schedule: Q01DX009 (ip), vehicle: other 100 % of control | dose: 200.0 mg/kg/injection, schedule: Q01DX009 (ip), vehicle: other 100 % of control

CCn1c(=NC(=O)c2ccccc2O)sc2ccccc21
inactive: [5] 98 % of control and 95 % of control | [6] 103 % of control and 95 % of control | dose: 400.0 mg/kg/injection, schedule: Q01DX001 (ip), vehicle: saline 100 % of control and 103 % of control

O=c1ccc(=O)n(-c2ccccc2)[nH]1
inactive: dose: 6.25 mg/kg/injection, schedule: Q01DX009 (ip), vehicle: saline with Tween-80 114 % of control | dose: 12.5 mg/kg/injection, schedule: Q01DX009 (ip), vehicle: saline with Tween-80 100 % of control | dose: 25.0 mg/kg/injection, schedule: Q01DX009 (ip), vehicle: saline with Tween-80 118 % of control | [2] 119 % of control

CC12CCC3c4ccc(O)cc4CCC3C1CCC2(O)CN1CCCCC1 (stereo not given)
inactive: [11] 96 % of control | [12] 91 % of control

CCCCN(CCCC)C(=O)C(C)O (stereo not given)
inactive: [10] 108 % of control | [11] 105 % of control | [12] 110 % of control | [13] 112 % of control

O=C1c2ccc3ccccc3c2CN2C(=O)CCC12 (stereo not given)
inactive: [8] 105 % of control | [9] 103 % of control | [14] 104 % of control

N#CCc1c(F)c(F)c(F)c(F)c1F
inactive: [7] 100 % of control | [8] 99 % of control and 108 % of control

Cc1cc(-n2nnc3ccccc3c2=O)on1
inactive: [1] 114 % of control | [15] 101 % of control | [16] 119 % of control

COc1ccc(C2C3=C(CCCC3=O)Oc3cc4c(cc32)OCO4)cc1 (stereo not given)
inactive: dose: 7.5 mg/kg/injection, schedule: Q01DX005 (ip), vehicle: saline with Tween-80 100 % of control | dose: 15.0 mg/kg/injection, schedule: Q01DX005 (ip), vehicle: saline with Tween-80 94 % of control | [7] 92 % of control | [8] 90 % of control and 91 % of control

CC(C)(C)c1cc(C(O)(C(F)(F)F)C(F)(F)F)c(S)c(C(O)(C(F)(F)F)C(F)(F)F)c1
inactive: dose: 3.12 mg/kg/injection, schedule: Q01DX005 (ip), vehicle: suspension in saline 103 % of control | dose: 6.25 mg/kg/injection, schedule: Q01DX005 (ip), vehicle: suspension in saline 103 % of control | dose: 12.5 mg/kg/injection, schedule: Q01DX005 (ip), vehicle: suspension in saline 103 % of control | dose: 25.0 mg/kg/injection, schedule: Q01DX005 (ip), vehicle: suspension in saline 110 % of control and 112 % of control

NC(=O)C1C2C=CC(C2)C1C(N)=O (stereo not given)
inactive: [1] 97 % of control | [15] 103 % of control | [16] 97 % of control

CC(C)C(=O)CC(=O)CCC(=O)Nc1cccc(Cl)c1
inactive: [8] 105 % of control | [9] 102 % of control | [14] 107 % of control

From PubChem BioAssay AID330 (DTP/NCI, 2004)
